In one test the target is T1, PKC-βII (Homo sapiens, UniProt P05771).
T1 construct: purchased PanVera, Madison Wis; host or cells: baculovirus expression vector
Nature of the test: Protein Kinase C Scintillation Proximity Assay (SPA), PKC-βII. The conditions noted are these: inhibition value, recombinant human isozyme, 1 μM ATP. Format: biochemical. The method, then:
(§1) The binding activity of a compound for Protein Kinase C (PKC) was assessed using a homogeneous Scintillation Proximity Assay according to the procedure below.
(§2) The different human PKC isozymes (were obtained from PanVera, Madison Wis. and had been prepared as recombinant enzymes produced from a baculovirus expression vector) were added to a reaction mixture containing a test compound, 20 mM HEPES (pH 7.4), 100 μM CaCl2, 10 mM MgCl2, 100 μg/mL phosphatidylserine, 20 μg/mL diacylglycerol, 1 μM ATP, 0.8 μCi (^33P)ATP, and 5 μg/mL biotinylated substrate peptide (Jing Zhao et al., J. Bio. Chem., 1998, 273, 23072). The reaction was incubated for 15 min at 30° C. Reactions were terminated by the addition of streptavidin-coated SPA beads (Amersham) in a solution containing 1 mM EGTA, 10 mM EDTA and 100 μM ATP. Beads were allowed to settle overnight and the plates read in a Wallac MICROBETA scintillation counter (PerkinElmer Life sciences, Wellesley, Mass.).
(§3) Values for inhibition of various PKC isozymes and GSK 3-β by certain compounds of the invention tested in the PKC SPA and GSK 3-β assays are shown in Table 1.
In general terms: SPA uses beads or plates that emit light when radiolabelled molecules are held near them.

In another test the target is T2, PKC-βI (Homo sapiens, UniProt P05771).
T2 construct: purchased PanVera, Madison Wis; host or cells: baculovirus expression vector
T2 sequence (P05771 whole entry): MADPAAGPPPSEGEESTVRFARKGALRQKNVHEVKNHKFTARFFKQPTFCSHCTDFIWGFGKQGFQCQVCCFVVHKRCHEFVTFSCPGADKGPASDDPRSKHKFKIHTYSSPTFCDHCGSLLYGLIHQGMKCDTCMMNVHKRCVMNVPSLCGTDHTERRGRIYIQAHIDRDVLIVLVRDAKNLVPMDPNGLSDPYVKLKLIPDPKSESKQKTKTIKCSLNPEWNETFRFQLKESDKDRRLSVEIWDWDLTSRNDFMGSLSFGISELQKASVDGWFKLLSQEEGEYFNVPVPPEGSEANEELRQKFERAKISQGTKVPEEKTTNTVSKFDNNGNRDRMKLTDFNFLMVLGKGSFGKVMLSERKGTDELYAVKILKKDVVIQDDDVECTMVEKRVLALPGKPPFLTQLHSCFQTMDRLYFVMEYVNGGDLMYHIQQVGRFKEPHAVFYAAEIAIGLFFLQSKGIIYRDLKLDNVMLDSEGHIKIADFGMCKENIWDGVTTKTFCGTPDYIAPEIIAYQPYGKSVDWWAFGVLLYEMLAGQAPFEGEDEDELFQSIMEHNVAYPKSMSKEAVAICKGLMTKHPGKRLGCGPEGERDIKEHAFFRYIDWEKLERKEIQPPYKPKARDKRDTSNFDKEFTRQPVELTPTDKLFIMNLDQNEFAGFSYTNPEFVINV
The test can be described thus: Protein Kinase C Scintillation Proximity Assay (SPA), PKC-βI. Format: biochemical. The conditions noted are these: inhibition value, recombinant human isozyme, 1 μM ATP. The method, then: as §1, §2, §3

A further test has as its target T3, Calmodulin Kinase 2 (Rattus norvegicus, UniProt P11275).
T3 construct: purchased New England Biolabs, Beverly, Mass; 6060; host or cells: insect cells
Nature of the test: Biotinylated Peptide Substrate Assay, Calmodulin Kinase 2. Type of test: biochemical. The method, then:
Assays to test inhibition of a compound for other kinases were preformed using methods that measure the amount of phosphorylation of a biotinylated peptide substrate. Biotinylated peptide substrates were selected from the literature as appropriate for the enzyme being evaluated.
A kinase reaction mix was prepared in 50 mM Tris-HCl pH=8, 10 mM MgCl2, 0.1 mM Na3VO4, 1 mM DTT, 10 μM ATP, 0.25-1 μM biotinylated peptide substrate, 0.2-0.8 μCuries per well ^33P-γ-ATP (2000-3000 Ci/mmol). Assay conditions vary slightly for each protein kinase, for example, insulin receptor kinase requires 10 mM MnCl2 for activity and Calmodulin-dependent protein kinase requires calmodulin and 10 mM CaCl2. The reaction mixture was dispensed into the wells of a streptavidin coated Flashplate and 1 μL drug stock in 100% DMSO was added to a 100 μL reaction volume resulting in a final concentration of 1% DMSO in the reaction. Enzyme was diluted in 50 mM Tris-HCl pH=8.0, 0.1% BSA and added to each well. The reaction was incubated for one hour at 30° C. in the presence of compound. After one hour the reaction mix was aspirated from the plate and the plate was washed with PBS containing 100 mM EDTA. The plate was read on a scintillation counter to determine ^33P-γ-ATP incorporated into the immobilized peptide. Test compounds were assayed in duplicate at 8 concentrations (100 uM, 10 uM, 1 uM, 100 nM, 10 nM, 1 nM, 100 pM, 10 pM). A maximum and minimum signal for the assay was determined on each plate.
The IC50 was calculated from the dose response curve of the percent inhibition of the maximum signal in the assay according to the formula:
% Inhibition=((MS−BS)/(TCS−BS))×100%
where MS=Maximum Signal, BS=Background Signal, TCS=Test Compound Signal. The percent inhibition was graphed against the log concentration of the test compound. Known inhibitor compounds as appropriate references for the kinase being assayed were also included on each plate.
VEGF-R (vascular endothelial growth factor receptor-2) is a fusion protein containing a polyhistidine tag at the N-terminus followed by amino acids 786-1343 of the rat VEGF-R2 kinase domain (GenBank Accession #U93306). Protein Kinase A is the catalytic subunit of cAMP dependent protein kinase-A purified from bovine heart (Upstate Biotech, Lake Placid, N.Y., Cat#14-114). CDK1 (cyclin dependent kinase 1) is isolated from insect cells expressing both the human CDK1 catalytic subunit and its positive regulatory subunit cyclin B (New England Biolabs, Beverly, Mass., Cat. #6020). Casein Kinase-1 is a protein truncation at amino acid 318 of the C-terminal portion of the rat CK1 delta isoform produced in E.coli (New England Biolabs, Beverly, Mass., Cat. #6030). […]

A further test addresses T4, GSK 3-β (Oryctolagus cuniculus, UniProt G1T8E2).
T4 construct: purchased New England Biolabs, Beverly Mass
Nature of the test: Glycogen Synthase Kinase 3-β Assay. Type of test: biochemical, rabbit. Particulars: inhibition value, recombinant rabbit GSK 3-β, PPI-2 substrate. The method, then:
The inhibitory activity of a compound against Glycogen Synthase Kinase 3-β (GSK 3-β) activity was assessed using a recombinant rabbit GSK 3-β according to the procedure below.
The mixture was reacted for 90 minutes at 30° C. to allow phosphorylation of the PPI-2 protein and then the protein in the reaction was precipitated using 10% trichloroacetic acid (TCA). The precipitated protein was collected on filter plates (MultiScreen-DV, Millipore, Bedford Mass.), which were subsequently washed. Finally, the radioactivity was quantified using a TopCount Scintillation Counter (Packard, Meridian Conn.). […] Staurosporine or Valproate (both available from several commercial sources), known inhibitors of GSK-3-β, were used as a positive control for screening.

Another test has as its target PKC α (Homo sapiens, UniProt P17252). The test can be described thus: Protein Kinase C Scintillation Proximity Assay (SPA), PKC-α. Type of test: biochemical. Also on record: purchased PanVera, Madison Wis; host or cells: baculovirus expression vector. Particulars: inhibition value, recombinant human isozyme, 1 μM ATP. The method, then:
as §1
The reaction was incubated for 15 min at 30° C. Reactions were terminated by the addition of streptavidin-coated SPA beads (Amersham) in a solution containing 1 mM EGTA, 10 mM EDTA and 100 μM ATP. Beads were allowed to settle overnight and the plates read in a Wallac MICROBETA scintillation counter (PerkinElmer Life sciences, Wellesley, Mass.).

From patent publication US6828327B2, “Macroheterocylic compounds useful as kinase inhibitors” (Ortho-McNeil Pharmaceutical, Inc., priority 2000, dated 2004) come the findings set out here.

T1 sequence (P05771 1-673 isoform P05771-2): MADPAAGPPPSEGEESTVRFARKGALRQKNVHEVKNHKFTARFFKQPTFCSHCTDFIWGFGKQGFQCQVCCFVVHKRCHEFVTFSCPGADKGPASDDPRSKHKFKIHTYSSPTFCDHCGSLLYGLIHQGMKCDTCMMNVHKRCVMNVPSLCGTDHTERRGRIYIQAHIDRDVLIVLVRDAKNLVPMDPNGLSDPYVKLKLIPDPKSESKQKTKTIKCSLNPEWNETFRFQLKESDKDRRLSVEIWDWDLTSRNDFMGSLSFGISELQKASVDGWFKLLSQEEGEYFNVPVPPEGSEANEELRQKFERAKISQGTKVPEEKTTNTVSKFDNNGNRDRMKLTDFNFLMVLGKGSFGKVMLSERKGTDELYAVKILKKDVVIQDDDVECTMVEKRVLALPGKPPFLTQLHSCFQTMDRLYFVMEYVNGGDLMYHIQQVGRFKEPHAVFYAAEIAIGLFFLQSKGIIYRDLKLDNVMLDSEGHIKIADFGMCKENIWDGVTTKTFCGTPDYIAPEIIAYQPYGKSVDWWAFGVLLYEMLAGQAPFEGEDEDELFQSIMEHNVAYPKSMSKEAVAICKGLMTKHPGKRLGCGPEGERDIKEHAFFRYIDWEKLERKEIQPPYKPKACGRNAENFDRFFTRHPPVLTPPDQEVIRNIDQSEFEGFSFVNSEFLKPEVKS
T4 sequence (G1T8E2 1-432): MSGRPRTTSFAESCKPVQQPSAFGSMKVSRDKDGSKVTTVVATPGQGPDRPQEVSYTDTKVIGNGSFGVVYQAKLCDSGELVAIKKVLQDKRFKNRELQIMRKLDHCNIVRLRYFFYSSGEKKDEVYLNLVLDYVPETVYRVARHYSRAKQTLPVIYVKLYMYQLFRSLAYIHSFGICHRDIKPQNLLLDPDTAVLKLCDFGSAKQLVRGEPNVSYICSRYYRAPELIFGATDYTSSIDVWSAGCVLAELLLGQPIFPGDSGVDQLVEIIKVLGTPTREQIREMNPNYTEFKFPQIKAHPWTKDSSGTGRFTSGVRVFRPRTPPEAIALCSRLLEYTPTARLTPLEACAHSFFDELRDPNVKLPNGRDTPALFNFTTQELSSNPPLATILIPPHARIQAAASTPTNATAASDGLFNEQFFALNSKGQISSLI

One may read the IC50 as the concentration that inhibits the measured activity by half. As to `O=C1NC(=O)C2=C1c1cn(c3ccccc13)CCOCCOCCOCCn1cc2c2cccnc21` [Cpd 11], the IC50 was 0.072 µM on PKC-βII; 1.06 µM at PKC-βI; more than 10 µM at Calmodulin Kinase 2; 0.015 µM at GSK 3-β; 1.21 µM at PKC α.

With `O=C1NC(=O)C2=C1c1cn(c3ccccc13)CCOCCOCCn1cc2c2cccnc21` [Cpd 10], the IC50 is 0.519 µM on PKC-βII; 5.15 µM at PKC-βI; more than 10 µM on Calmodulin Kinase 2; 0.128 µM on GSK 3-β; 5.36 µM at PKC α.

Consider `O=C1NC(=O)C2=C1c1cn(c3ncccc13)CCOCCOCCOCCOCCn1cc2c2cccnc21` [Cpd 2], for which the IC50 is more than 100 µM on PKC-βII, more than 100 µM on PKC-βI, more than 10 µM against Calmodulin Kinase 2 and 0.032 µM at GSK 3-β.

Regarding `O=C1NC(=O)C2=C1c1cn(c3ncccc13)CCOCCOCCOCCn1cc2c2cccnc21` [Cpd 1], the IC50 is 2.41 µM at PKC-βII, 18.5 µM at PKC-βI, more than 10 µM at Calmodulin Kinase 2 and 0.027 µM on GSK 3-β.
